Assays:
presbyopic subjects [1] = experiment: Near vision acuity after topical instillation (near test card at 16 inches; Reading vs. Baseline at 40 cm; onset, duration, Efficacy Index); format: in vivo, human
Description: (§1) Subject is an emmetrope over the age of 45 with a baseline near vision of 20.100 and baseline distance vision of 20.20. Topical administration to the eye of 1% w/v pilocarpine in saline solution results in an improvement of near vision to 20.40 (8a), however this improvement comes at the expense of a reduction in distance vision to 20.100 (8b). […] A proper drug carrier can also have a beneficial effect.
(§2) 1.75% w/v aceclidine was formulated in 0.9% w/v saline with 0.02% w/v BAK. Drops were instilled binocularly into a subject. Near vision testing was performed at 16 inches on a Precision Vision 16″ near test card. All near vision testing was binocular.
(§3) As aceclidine is an […], the clinical effectiveness may vary with different ratios. For the present studies a nearly exact 50:50 ratio of stereoisomers was measured as best determined by polarimetry.
In brief, the score is calculated by multiplying the lines of improvement in near visual acuity by the number of hours the improvement lasts. For example a score of: 5 is equal to +1 lines of improvement in near visual acuity for 5 hours; 10 is equal to +1.5 lines of improvement for 6.7 hours; 15 is equal to 2 lines of improvement for 7.5 hours; 20 is equal to 2.5 lines of improvement for 8 hours; 25 is equal to 3+ lines of improvement for 8.3 hours and 35 is equal to 3.75+ lines of improvement for 9 hours.
2 subjects instilled 2 drops each of the above formulation in each eye about 5 minutes apart.

presbyopic subjects [2] = experiment: Distance vision acuity after topical instillation; format: in vivo, human; settings: baseline distance 20.20
Description: as §1, §2, §3

[3] = 1% w/v pilocarpine or 1.55% w/v aceclidine in saline solution, emmetrope over 45, baseline near 20.100
[4] = 1% w/v pilocarpine or 1.55% w/v aceclidine in saline solution

Row | SMILES | near vision (FIG. 1) (presbyopic subjects [1]; [3]) | time period of near vision improvement (FIG. 1) (presbyopic subjects [1]; 1.55% w/v aceclidine in saline solution) | near vision improvement (presbyopic subjects [1]; 1.75% aceclidine, 2.5% mannitol, 0.01% tropicamide, 5% polysorbate 80) | near vision (FIG. 1) (presbyopic subjects [1]; aceclidine in carrier with 0.042% w/v tropicamide) | near vision (FIG. 1) (presbyopic subjects [1]; aceclidine in carrier: 5.5% HPβCD, 0.75% CMC, 0.25% NaCl, 0.01% BAK) | distance vision (FIG. 1) (presbyopic subjects [2]; [4]) | near vision (FIG. 1) (presbyopic subjects [1]; 1% w/v pilocarpine with addition of 0.015% w/v tropicamide, baseline near 20.100) | distance vision (FIG. 1) (presbyopic subjects [2]; 1% w/v pilocarpine with addition of 0.015% w/v tropicamide)
1 | CC(=O)OC1CN2CCC1CC2 (racemic) [Aceclidine, aceclidine] | 20.40 | 6 h | up to 3 lines of vision acuity | 20.15 | < 20.20 | without any effect on the baseline distance vision | – | –
2 | CC[C@@H]1C(=O)OC[C@@H]1Cc1cncn1C [pilocarpine] | 20.40 | – | – | – | – | 20.100 | 20.25 | 20.55

Reference: US20190321334A1, “COMPOSITIONS AND METHODS FOR THE TREATMENT OF PRESBYOPIA” (priority 2018, published 2019)
